Reference: US6562818B1, “Irreversible inhibitors of tyrosine kinases” (Warner-Lambert Company, priority 1997, dated 2003)
Where a name gives a salt, the structure may show the parent alone.

Columns and labels:
EGFR [1] = molecular target: T1, EGFR (Homo sapiens, UniProt P00533); conditions: A431 cells, 2 μM compound
Protocol: (§1) Extracts were made by lysing the monolayers in 0.2 mL of boiling Laemlli buffer (2% sodium dodecyl sulfate, 5% beta-mercaptoethanol, 10% glycerol and 50 mM tris[hydroxymethyl]aminomethane (Tris), pH 6.8), and the lysates were heated to 100° C. for 5 minutes. Proteins in the lysate were separated by polyacrylamide gel electrophoresis and electrophoretically transferred to nitrocellulose. The membrane was washed once in 10 mM Tris, pH 7.2, 150 mM NaCl, 0.01% Azide (TNA), and blocked overnight in TNA containing 5% bovine serum albumin and 1% ovalbumin. The membrane was blotted for 2 hours with antiphosphotyrosine antibody (UBI, 1 μg/mL in blocking buffer) and then washed twice in TNA, once in TNA containing 0.05% Tween-20 detergent and 0.05% nonidet P-40 detergent and twice in TNA. […] Band intensities were determined with a Molecular Dynamics laser densitometer.

[2] = molecular target: Human EGF receptor tyrosine kinase (Homo sapiens, UniProt P00533); conditions: read-out: EGFR (isolated enzyme) IC50; isolated enzyme from A431 cells, 10 μM ATP
Protocol: Human EGF receptor tyrosine kinase was isolated from A431 human epidermoid carcinoma cells by the following method. Cells were grown in roller bottles in dMEM/F12 media (Gibco/BRL) containing 10% fetal calf serum. Approximately 10^9 cells were lysed in 2 volumes of buffer containing 20 mM N-[2-hydroxyethyl]piperazine-N′-[2-ethane sulfonic acid](Hepes), pH 7.4, 5 mM ethylene glycol-bis(β-aminoethyl ether) N,N,N′,N′-tetraacetic acid (EGTA), 1% Triton X-100, 10% glycerol, 0.1 mM sodium orthovanadate, 5 mM sodium fluoride, 4 mM pyrophosphate, 4 mM benzamide, 1 mM dithiothreitol (DTT), 80 μg/mL aprotinin, 40 μg/mL leupeptin, and 1 mM phenylmethyl sulfonyl fluoride (PMSF). After centrifugation at 25,000×g for 10 minutes, the supernatant was applied to a fast Q sepharose column (Pharmacia Biotech., Inc., Piscataway, N.J.) and eluted with a linear gradient from 0.1 M NaCl to 0.4 M NaCl in 50 mM Hepes, 10% glycerol, pH 7.4. Enzyme active fractions were pooled, divided into aliquots, and stored at −100° C.
Enzyme assays for IC50 determinations were performed in 96-well filter plates (Millipore MADVN6550, Millipore, Bedford, Mass). […] The wells are then washed 5 times with 0.2 mL of 10% TCA and ^32P incorporation determined with a Wallac beta plate counter (Wallac, Inc., Gaithersburg, Pa.).

EGFR [3] = molecular target: T1, EGFR; conditions: read-out: EGFR (autophosphorlyation) IC50; A431 cells, 15 minutes compound, stimulated with 100 ng/mL EGF
Protocol: as §1
Duplicate sets of cells were treated with a range of concentrations of the designated compound to be tested as an inhibitor for 15 minutes. The cells were then stimulated with 100 ng/mL of EGF for 5 minutes and extracts made as described under the Western Blotting Procedure.

ErbB-2 = ErbB-2 (Homo sapiens, UniProt P04626); assay: ErbB-2 autophosphorylation assay; assay type: cell-based; conditions: read-out: ErbB-2 (autophosphorlyation) IC50
Chain of ErbB-2 (P04626 23-1255, species assumed): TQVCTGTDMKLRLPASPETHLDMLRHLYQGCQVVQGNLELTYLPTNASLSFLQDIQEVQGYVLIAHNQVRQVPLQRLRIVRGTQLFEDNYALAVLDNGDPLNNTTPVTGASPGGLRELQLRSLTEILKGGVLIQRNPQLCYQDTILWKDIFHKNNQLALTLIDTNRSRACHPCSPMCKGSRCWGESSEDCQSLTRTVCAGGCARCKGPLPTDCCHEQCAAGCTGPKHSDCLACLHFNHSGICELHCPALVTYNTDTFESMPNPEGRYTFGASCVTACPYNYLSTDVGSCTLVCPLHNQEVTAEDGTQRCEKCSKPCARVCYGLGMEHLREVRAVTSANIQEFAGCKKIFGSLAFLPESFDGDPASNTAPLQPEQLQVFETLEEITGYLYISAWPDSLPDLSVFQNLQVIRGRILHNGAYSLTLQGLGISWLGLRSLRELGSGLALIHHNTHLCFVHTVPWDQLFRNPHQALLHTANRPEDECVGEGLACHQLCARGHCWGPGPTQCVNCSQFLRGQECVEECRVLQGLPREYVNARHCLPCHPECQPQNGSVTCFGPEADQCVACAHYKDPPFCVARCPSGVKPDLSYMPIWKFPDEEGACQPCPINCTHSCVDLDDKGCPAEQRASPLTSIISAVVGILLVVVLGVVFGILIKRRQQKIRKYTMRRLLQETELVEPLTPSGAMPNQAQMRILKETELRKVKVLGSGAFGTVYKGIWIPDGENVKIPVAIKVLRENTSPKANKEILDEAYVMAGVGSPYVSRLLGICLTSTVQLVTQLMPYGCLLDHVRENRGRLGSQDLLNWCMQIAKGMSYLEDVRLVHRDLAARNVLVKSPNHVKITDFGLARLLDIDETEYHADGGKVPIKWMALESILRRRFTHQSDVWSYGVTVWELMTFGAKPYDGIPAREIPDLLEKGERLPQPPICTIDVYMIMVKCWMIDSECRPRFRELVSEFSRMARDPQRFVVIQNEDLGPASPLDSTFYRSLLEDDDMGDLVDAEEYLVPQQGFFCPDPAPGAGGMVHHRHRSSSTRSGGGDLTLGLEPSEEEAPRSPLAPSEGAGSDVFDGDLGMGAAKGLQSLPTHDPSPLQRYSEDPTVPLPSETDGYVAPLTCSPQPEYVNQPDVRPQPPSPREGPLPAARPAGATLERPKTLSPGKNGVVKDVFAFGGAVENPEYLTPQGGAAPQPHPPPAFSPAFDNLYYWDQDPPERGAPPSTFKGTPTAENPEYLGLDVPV

T1 sequence (P00533 25-1210 limits assumed): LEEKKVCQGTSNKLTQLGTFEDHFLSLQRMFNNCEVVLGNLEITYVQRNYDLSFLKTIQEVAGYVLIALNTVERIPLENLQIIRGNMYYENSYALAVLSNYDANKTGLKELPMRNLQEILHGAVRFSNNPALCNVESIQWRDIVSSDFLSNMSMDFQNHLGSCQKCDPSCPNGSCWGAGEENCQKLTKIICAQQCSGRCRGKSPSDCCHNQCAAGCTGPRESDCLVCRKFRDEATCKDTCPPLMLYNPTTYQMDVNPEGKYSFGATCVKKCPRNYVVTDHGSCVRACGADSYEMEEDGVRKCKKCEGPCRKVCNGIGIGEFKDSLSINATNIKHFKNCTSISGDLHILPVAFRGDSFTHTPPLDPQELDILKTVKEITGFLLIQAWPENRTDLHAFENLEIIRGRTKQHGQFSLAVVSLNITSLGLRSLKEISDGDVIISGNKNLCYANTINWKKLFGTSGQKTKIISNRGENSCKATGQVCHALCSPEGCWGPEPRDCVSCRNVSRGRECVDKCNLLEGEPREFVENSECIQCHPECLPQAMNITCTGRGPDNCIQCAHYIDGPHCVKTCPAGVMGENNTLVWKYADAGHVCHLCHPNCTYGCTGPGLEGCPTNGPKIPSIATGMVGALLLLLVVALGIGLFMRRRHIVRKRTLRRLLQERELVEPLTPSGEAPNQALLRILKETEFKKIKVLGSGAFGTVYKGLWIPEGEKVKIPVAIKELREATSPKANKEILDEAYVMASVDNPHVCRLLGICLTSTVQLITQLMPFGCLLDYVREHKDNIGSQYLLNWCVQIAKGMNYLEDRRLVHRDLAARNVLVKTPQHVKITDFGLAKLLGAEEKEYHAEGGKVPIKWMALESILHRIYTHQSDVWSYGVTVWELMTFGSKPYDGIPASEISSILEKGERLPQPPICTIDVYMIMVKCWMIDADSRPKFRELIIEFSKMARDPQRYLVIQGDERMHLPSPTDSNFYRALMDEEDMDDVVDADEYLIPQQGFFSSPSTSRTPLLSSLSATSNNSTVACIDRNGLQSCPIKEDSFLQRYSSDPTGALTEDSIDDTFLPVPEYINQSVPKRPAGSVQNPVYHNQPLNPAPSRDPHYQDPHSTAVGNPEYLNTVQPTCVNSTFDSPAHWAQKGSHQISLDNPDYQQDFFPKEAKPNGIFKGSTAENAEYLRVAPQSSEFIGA
Chain of Human EGF receptor tyrosine kinase (P00533 25-1210 limits assumed): as above

SMILES	melting point	% EGFR enzyme activity after 8 hours washoff (EGFR [1])	IC50 [2]	IC50 (EGFR [3])	IC50 (ErbB-2)
C=CC(=O)Nc1ccc2ncnc(Nc3ccc(Oc4ccccc4)cc3)c2c1 (as salt: salt) [Example 1, N-(4-[4-Phenoxyanilino]quinazolin-6-yl)acrylamide]	185 to 191 °C				
C=CC(=O)Nc1ccc2ncnc(Nc3ccc(Oc4ccccc4)cc3)c2c1 [Example 1, N-(4-[4-Phenoxyanilino]quinazolin-6-yl)acrylamide]		0%	5.8 nM	4.8 nM	
C=CC(=O)Nc1ccc2ncnc(Nc3ccc(OCc4ccccc4)cc3)c2c1 [Example 2, N-(4-[4-Benzyloxyanilino]quinazolin-6-yl)acrylamide]		0%	3.6 nM	4.2 nM	7.6 nM
C=CC(=O)Nc1ccc2ncnc(Nc3ccc(OCc4ccccc4)cc3)c2c1 (as salt: salt) [Example 2, N-(4-[4-Benzyloxyanilino]quinazolin-6-yl)acrylamide]	227 to 229 °C				
